Measurements published in patent publication US9605024B2, “PAR4 agonist peptides” (Bristol-Myers Squibb Company, priority 2012, dated 2017).

Assays:
washed platelets = experiment: PAR4 agonist peptide induced platelet aggregation assay (washed platelets); format: cell-based, human; details: agonist activity
Procedure: Human blood was collected in ACD (85 mM tri-sodium citrate, 78 mM citric acid, 110 mM D-glucose, pH 4.4) at a ratio of 1.4 ml per 10 ml blood. PRP was isolated by centrifugation at 170 g for 14 minutes and platelets were further pelleted by centrifugation at 1300 g for 6 minutes. Platelets were washed once with 10 ml ACD containing 1 mg/ml bovine serum albumin.
The ability of the compounds of the current invention to induce platelet aggregation was tested in a 96-well microplate aggregation assay format. Briefly, a washed platelet suspension with varying concentrations of agonist compounds was assayed. Aggregation was initiated by the addition of a titered test agonist peptide. The plate was then placed into a 37° C. Molecular Devices SPECTRAMAX® Plus Plate Reader (Sunnyvale, Calif.). […] The plate also included an untreated control sample which served as ODmax, while buffer containing no platelets was the ODmin. Platelet aggregation was determined by subtracting the ODmax from the ODmin for the 100% aggregation value. In experimental samples, the observed transmission was subtracted from the minimum value and then compared to the 100% aggregation value to determine the percentage aggregation. ED50 values were determined using Excel Fit software.

PAR4 [1] = target: T1, PAR4 (Homo sapiens (Human), UniProt Q96RI0); experiment: FLIPR assay in PAR4-expressing HEK293 cells, test for antagonist activity; format: cell-based; details: H-Ala-Phe(4-F)-Pro-Gly-Trp-Leu-Val-Lys-Asn-Gly-NH2-induced calcium mobilization
T1 sequence (Q96RI0 18-385): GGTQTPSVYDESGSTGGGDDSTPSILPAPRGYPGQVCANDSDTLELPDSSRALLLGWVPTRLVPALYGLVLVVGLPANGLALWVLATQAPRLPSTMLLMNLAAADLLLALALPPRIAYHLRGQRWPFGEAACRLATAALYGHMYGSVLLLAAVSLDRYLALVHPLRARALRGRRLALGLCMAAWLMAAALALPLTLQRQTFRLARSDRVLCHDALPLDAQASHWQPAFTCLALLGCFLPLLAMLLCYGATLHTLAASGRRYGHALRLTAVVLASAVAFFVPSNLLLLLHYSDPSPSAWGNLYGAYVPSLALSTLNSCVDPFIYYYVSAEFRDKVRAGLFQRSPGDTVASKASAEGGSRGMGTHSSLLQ
Description: The FLIPR assay is an exemplary in vitro assay for measuring the activity of the PAR4 antagonists of the present invention. In this assay, intracellular calcium mobilization is induced in PAR4 expressing cells by a PAR4 agonist and calcium mobilization is monitored. See, e.g., Example A. The FLIPR assay is also an exemplary in vitro assay for measuring the agonist activity of PAR4 agonist peptides. See Example H.
HEK293 cells stably expressing PAR4 were generated by a standard method of transfection of human […] cDNA expression vector or by RAGE technology from Athersys Inc. (Cleveland, Ohio) and selected based on PAR4 protein expression of mRNA expression. […] These cells express endogenous PAR1 and can elicit calcium signal upon stimulation with PAR1 agonist peptide.
Counter screens for agonist activity and PAR1 antagonist activity were also performed. Briefly, HEK293 EBNA PAR4 clone 20664.1J cells were plated 24 hrs. prior to experiment in 384 well, Poly-D-Lysine coated, black, clear bottom plates (Greiner Bio-One, Monroe, N.C.). Cells were plated at 20,000 cells/well in 20 μl growth medium and incubated at 37° C. with 5% CO2 overnight. At time of assay, media was replaced with 40 μl 1× Hank's Buffered Saline Solution (HBSS) (with 10 mM HEPES) and 20 μl test compound also diluted in 1×HBSS buffer was added at various concentrations and 0.67% DMSO final concentration on the FDSS for agonist measurement. The cells were then incubated for 30 minutes at room temperature followed by addition of 20 μl of agonist peptide for antagonist measurement on the FDSS.

PAR4 [2] = target: T1, PAR4; experiment: Gamma thrombin induced platelet aggregation assay (PRP assay); format: cell-based; details: platelet rich plasma
Procedure: The platelet rich plasma was isolated by centrifugation at 170 g for 14 minutes.
The ability of the compounds of the current invention to inhibit platelet aggregation induced by gamma-thrombin was tested in a 96-well microplate aggregation assay format. Briefly, PRP or washed platelet suspension (100 μl) was pre-incubated for 5 minutes at room temperature with varying concentrations of compounds. Aggregation was initiated by ˜10-50 nM gamma thrombin (Haematologic Technologies, Essex Junction, Vt.), which was titrated daily to achieve 80% platelet aggregation. Refludan at 1 U/mL (Berlex, Montville, N.J.) was added to the gamma thrombin sample to prevent PAR1 activation induced by residual alpha-thrombin contamination. The plate was then placed into a 37° C. Molecular Devices (Sunnyvale, Calif.) SPECTRAMAX® Plus Plate Reader. […] The plate also included an untreated control sample which served as ODmax, while buffer containing no platelets was the ODmin. Platelet aggregation was determined by subtracting the ODmax from the ODmin for the 100% aggregation value. In experimental samples, the observed transmission was subtracted from the minimum value and then compared to the 100% aggregation value to determine the percentage aggregation. IC50 values are determined using Excel Fit software.

[3] = TRACER phase III trial, ACS patients; cited from earlier work
[4] = target: protease-activated receptor type 4 (PAR4) (Homo sapiens (Human), UniProt Q96RI0); details: abstract of Lee et al., J. Med. Chem. 2001; cited from earlier work
Chain of protease-activated receptor type 4 (PAR4) (Q96RI0 18-385): as above

Row | SMILES | ED50 (μM) [Platelet Aggregation] (washed platelets) | also measured
1 | COc1cc(OCc2csc(-c3ccc(F)cc3F)n2)c2cc(-c3cn4nc(OC)sc4n3)oc2c1 [Example 24] | 0.69 µM | –
2 | COc1cc(OCc2csc(C(F)(F)F)n2)c2cc(-c3cn4nc(OC)sc4n3)oc2c1 [Example 2, 2-Methoxy-6-(6-methoxy-4-((2-(trifluoromethyl)thiazol-4-yl)methoxy)benzofuran-2-yl)imidazo[2,1-b][1,3,4]thiadiazole] | – | EC50 (PAR4 [1]): 0.42 nM; IC50 (PAR4 [2]): 49 nM
3 | COc1cc(OCc2csc(-c3cccc(C(F)(F)F)c3)n2)c2cc(-c3cn4nc(OC)sc4n3)oc2c1 [Example 17] | 106 µM | –
4 | COc1cc(OCc2csc(-c3ccccc3OC)n2)c2cc(-c3cn4nc(OC)sc4n3)oc2c1 [Example 19] | 1.6 µM | –
5 | COc1cc(OCc2csc(-c3cccc(C)c3)n2)c2cc(-c3cn4nc(OC)sc4n3)oc2c1 [Example 12] | 0.97 µM | –
6 | COc1cc(OCc2csc(-c3cnccn3)n2)c2cc(-c3cn4nc(OC)sc4n3)oc2c1 [Example 32] | 0.61 µM | –
7 | COc1cc(OCc2csc(-c3ccc(Cl)cc3)n2)c2cc(-c3cn4nc(OC)sc4n3)oc2c1 [Example 27] | 1.7 µM | –
8 | COc1cc(OCc2cscn2)c2cc(-c3cn4nc(OC)sc4n3)oc2c1 [Example 34] | 3.0 µM | –
9 | COc1cc(OCc2nc(-c3ccccc3)sc2C)c2cc(-c3cn4nc(OC)sc4n3)oc2c1 [Example 13] | 0.67 µM | –
10 | COc1cc(OCc2csc(-c3ccccc3F)n2)c2cc(-c3cn4nc(OC)sc4n3)oc2c1 [Example 26] | 1.0 µM | –
11 | COc1cc(OCc2csc(N3CCCCC3)n2)c2cc(-c3cn4nc(OC)sc4n3)oc2c1 [Example 21] | 2.4 µM | –
12 | COc1cc(OCc2csc(-c3ccncc3)n2)c2cc(-c3cn4nc(OC)sc4n3)oc2c1 [Example 28] | 0.76 µM | –
13 | COc1cc(OCc2csc(-c3ccc(F)cc3)n2)c2cc(-c3cn4nc(OC)sc4n3)oc2c1 [Example 15] | 0.63 µM | –
14 | COc1cc(OCc2csc(-c3ccccc3Cl)n2)c2cc(-c3cn4nc(OC)sc4n3)oc2c1 [Example 16] | 37 µM | –
15 | COc1cc(OCc2csc(C3CCOCC3)n2)c2cc(-c3cn4nc(OC)sc4n3)oc2c1 [Example 14] | 12.3 µM | –
16 | COc1cc(OCc2csc(C)n2)c2cc(-c3cn4nc(OC)sc4n3)oc2c1 [Example 1, 2-Methoxy-6-(6-methoxy-4-((2-methylthiazol-4-yl)methoxy)benzofuran-2-yl)imidazo[2,1-b][1,3,4]thiadiazole] | 13 µM | –

Row | SMILES | ED50 (μM) [Platelet Aggregation] (washed platelets) | also measured
17 | COc1cc(OCc2csc(-c3cccnc3)n2)c2cc(-c3cn4nc(OC)sc4n3)oc2c1 [Example 30] | 1.7 µM | –
18 | COc1nn2cc(-c3cc4c(OCc5csc(-c6ccccc6)n5)cc(F)cc4o3)nc2s1 [Example 36, 6-(6-Fluoro-4-((2-phenylthiazol-4-yl)methoxy)benzofuran-2-yl)-2-methoxyimidazo[2,1-b][1,3,4]thiadiazole] | – | EC50 (PAR4 [1]): 1 nM; IC50 (PAR4 [2]): 48 nM
19 | COc1cc(OCc2csc(C3CCCCC3)n2)c2cc(-c3cn4nc(OC)sc4n3)oc2c1 [Example 20] | 4.1 µM | –
20 | COc1cc(OCc2cn(-c3ccccc3)nn2)c2cc(-c3cn4nc(OC)sc4n3)oc2c1 [Example 9, 2-Methoxy-6-(6-methoxy-4-((1-phenyl-1H-1,2,3-triazol-4-yl)methoxy)benzofuran-2-yl)imidazo[2,1-b][1,3,4]thiadiazole] | – | EC50 (PAR4 [1]): 5.3 nM; IC50 (PAR4 [2]): > 3000 nM
21 | CCOC(=O)N[C@@H]1CC[C@@H]2[C@@H](C1)C[C@H]1C(=O)O[C@H](C)[C@H]1[C@H]2/C=C/c1ccc(-c2cccc(F)c2)cn1 [vorapaxar] | – | cardiovascular events [3]: did not significantly reduce cardiovascular events; risk of major bleeding [3]: significantly increased the risk of major bleeding
22 | COc1cc(OCc2cnnn2-c2ccccc2)c2cc(-c3cn4nc(OC)sc4n3)oc2c1 [Example 10, 2-Methoxy-6-(6-methoxy-4-((1-phenyl-1H-1,2,3-triazol-5-yl)methoxy)benzofuran-2-yl)imidazo[2,1-b][1,3,4]thiadiazole] | – | EC50 (PAR4 [1]): 3.5 nM; IC50 (PAR4 [2]): 2700 nM
23 | COc1cc(OCc2csc(-c3ccc(OC(F)(F)F)cc3)n2)c2cc(-c3cn4nc(OC)sc4n3)oc2c1 [Example 29] | 1.0 µM | –
24 | COc1cc(OCc2csc(-c3ccccc3)n2)c2cc(-c3cn4nc(OC)sc4n3)oc2c1 [Example 3, 2-Methoxy-6-(6-methoxy-4-((2-phenylthiazol-4-yl)methoxy)benzofuran-2-yl)imidazo[2,1-b][1,3,4]thiadiazole] | 0.86 µM | –
25 | COc1cc(OCc2csc(N3CCN(C)CC3)n2)c2cc(-c3cn4nc(OC)sc4n3)oc2c1 [Example 22] | 1.2 µM | –
26 | COc1ccc(-c2nc(COc3cc(OC)cc4oc(-c5cn6nc(OC)sc6n5)cc34)cs2)cc1 [Example 18] | 5.5 µM | EC50 (PAR4 [1]): 2.5 nM; IC50 (PAR4 [2]): 3.6 nM
27 | COc1cc(OCc2csc(-c3cccc(F)c3)n2)c2cc(-c3cn4nc(OC)sc4n3)oc2c1 [Example 25] | 52 µM | –
28 | CCc1nc(COc2cc(OC)cc3oc(-c4cn5nc(OC)sc5n4)cc23)cs1 [Example 23] | 0.79 µM | –
29 | COCCOCc1nc(COc2cc(OC)cc3oc(-c4cn5nc(OC)sc5n4)cc23)cs1 [Example 6, 2-Methoxy-6-(6-methoxy-4-((2-((2-methoxyethoxy)methyl)thiazol-4-yl)methoxy)benzofuran-2-yl)imidazo[2,1-b][1,3,4]thiadiazole] | 1.1 µM | –
30 | COc1cc(OCc2csc(-c3cc(C)on3)n2)c2cc(-c3cn4nc(OC)sc4n3)oc2c1 [Example 33] | 1.2 µM | EC50 (PAR4 [1]): 1.7 nM; IC50 (PAR4 [2]): 38 nM
31 | CCOC(=O)c1ccc(-c2nn(Cc3ccccc3)c3ccccc23)cc1 [Compound 58] | – | inhibition of PAR4-dependent platelet activation [4]: selective and potent inhibitor
32 | COc1cc(OCc2csc(N3CCC(F)(F)CC3)n2)c2cc(-c3cn4nc(OC)sc4n3)oc2c1 [Example 31] | 0.63 µM | –
